The numbers were not newly measured in patent publication US20210346497A1, “Methods of Treating Cancer” (Tesaro, Inc., priority 2018, published 2021), which cites them from elsewhere.

Data set [1] deals with cancer cell lines silenced for BRCA-1 or BRCA-2, or carrying BRCA-1 or BRCA-2 mutations.
For data set [2], the system named is PARP activity in various cell lines.
The subject of data set [3] is MDA-MB-436, CAPAN-1, GRANTA-519, OVCAR3, HT29, DLD-1, patient derived Ewing's sarcoma and TNBC xenograft models. The settings on record: BRCA-1 mutant breast, BRCA-2 mutant pancreatic, ATM-mutant mantle cell lymphoma, serous ovarian, colorectal, TNBC xenografts in mice.

As to `Cc1ccc(S(=O)(=O)O)cc1.NC(=O)c1cccc2cn(-c3ccc([C@@H]4CCCNC4)cc3)nc12` [Niraparib, (3S)-3-[4-{7-(aminocarbonyl)-2H-indazol-2-yl}phenyl]piperidine], the cell cycle arrest result in the data set with tumor cell was “arrest in the G2/M phase of the cell cycle”. Further, in data set [1] (BRCA-1/BRCA-2 silenced or mutant cancer cell lines compared to wild type counterparts), the anti-proliferative activity result was “selective anti-proliferative activity”. Moreover, the “consequence on cell cycle of BRCA-defective cells” value in data set [1] (BRCA-defective cells) is on record as “cell cycle arrest in G2/M followed by apoptosis”. Also, the IC50 (as a rule, the concentration needed to halve the response being measured) in data set [2] (read-out: IC50 of PARP activity in cells, PARP activity stimulated by DNA damage caused by hydrogen peroxide) was ~4 nM. For the same compound, the IC90 in data set [2] (read-out: inhibitory concentration at 90% of control (IC90) of PARP activity in cells, PARP activity stimulated by DNA damage caused by hydrogen peroxide) was ~50 nM. Besides, the “activity on normal human cells” value with normal human cells is “weak activity”. Also, in data set [3], the “antitumor activity in vivo” value was “strong antitumor activity”.
